What was measured:
[1] = Acute toxicity (LD50), intravenous administration, mouse; conditions: in vivo
From the text: (§1) Ihre Toxizität ist geringer als die des aus einem Gemisch von Kondensationsprodukten aus m-Kresolsulfonsäuren und Formaldehyd bestehenden Handelsprodukts. In der nachstehenden Tabelle sind die bei intravenöser Verabreichung an Maus und Ratte ermittelten LDSo-Werte des Dinatriumsalzes der 2,2'-Dihydroxy-5,5'-methylendi-(p-toluolsulfonsäure) (A) und des mit Natriumhydroxid neutralisierten Handelsprodukts (B) aufgeführt.

[2] = Acute toxicity (LD50), intravenous administration, rat; conditions: in vivo
From the text: as §1

Structure (SMILES): Cc1cc(O)c(S(=O)(=O)O)cc1Cc1cc(S(=O)(=O)O)c(O)cc1C [A, Dinatrium-2,2'-dihydroxy-5,5'-methylendi-(p-toluolsulfonat)-monohydrat]
- LD50 ([1]; Maus ♀): 1050 mg/kg
- LD50 ([1]; Maus ♂): 1100 mg/kg
- LD50 ([2]; Ratte ♀): 990 mg/kg
- LD50 ([2]; Ratte ♂): 930 mg/kg
